Reference: patent publication US12552797B2, “Process for making (3-[cyclopropylethoxy(difluoro)methyl]-6-6[5-fluoro-6-(2,2,2-trifluoroethoxy-3-pyridyl]- [1,2,4]triazolo[4,3-a]pyrazine” (Praxis Precision Medicines, Inc., priority 2019, dated 2026)

Columns and labels:
[1] = Phase 1 single/multiple ascending dose and food effect trial in healthy volunteers: safety and tolerability; type: in vivo, human
Text: This is a three-part clinical trial to evaluate the safety, tolerability, PK, and food effect of Compound 1 in healthy volunteers aged 18 to 55 years inclusive. The clinical trial is comprised of the following 3 parts: • Part A is randomized, double-blinded and placebo-controlled. Part A is designed to investigate the safety and PK of single ascending doses of Compound 1. • Part B is randomized, double-blinded and placebo-controlled. […]
Dosing in each dose level cohort starts with 2 sentinel participants with one of the 2 participants randomized to receive Compound 1 and the other participant randomized to receive placebo. The safety and tolerability of each sentinel participant are monitored until Day 6 and reviewed prior to dosing the remainder of participants in each cohort. […]
(§1) A dose level is evaluated in Part B if determined to be safe and tolerable in Part A. It is anticipated that 3 dose levels are evaluated in Part B in a total of 3 cohorts (Cohorts B1-B3). […]
as §1

[2] = Phase 1 single/multiple ascending dose and food effect trial in healthy volunteers: pharmacokinetics (plasma, urine); type: in vivo, human
Text: This is a three-part clinical trial to evaluate the safety, tolerability, PK, and food effect of Compound 1 in healthy volunteers aged 18 to 55 years inclusive. The clinical trial is comprised of the following 3 parts: • Part A is randomized, double-blinded and placebo-controlled. Part A is designed to investigate the safety and PK of single ascending doses of Compound 1. • Part B is randomized, double-blinded and placebo-controlled. Part B is designed to investigate the safety and PK of multiple ascending doses of Compound 1 (selected based on the results from Part A). • Part C is a randomized, open-label, crossover design to investigate the PK of a single dose of Compound 1 in the fasted and fed state. Objectives and Endpoints: Part A
(§2) Part C may commence once the safety and PK have been adequately evaluated in the last cohort of Part A. Up to 16 participants receive two doses of Compound 1, one dose after a minimum of 10 hours fasting and one after consumption of a high-fat, high calorie meal in a randomized crossover design, with a 7 day washout in between periods. Up to 3 additional days of washout may be added between fasted and fed dosing based on the observed half-life in Part A.
A validated bioanalytical method is utilized for the determination of plasma and urine concentrations of Compound 1. Plasma and urine concentrations are summarized by dose group/condition and timepoint using descriptive statistics. In addition to descriptive statistics specified in General Conditions above, plasma concentrations are also summarized using number and percentage of concentrations below the level of quantification (BLQ) and coefficient of variation (CV %).
Pharmacokinetic parameters are estimated from concentration-time data using standard non-compartmental methods. Urine PK parameters are estimated from urine concentration and urine volume data. PK parameters are summarized by dose group/condition using descriptive statistics. In addition to descriptive statistics specified in General Conditions above, PK parameters are summarized using CV %, geometric mean, and geometric coefficient of variation. PK parameters are assessed for linearity and dose proportionality using the power model where feasible. To test for a food effect in Part C, the geometric mean ratio (In transformed) of the test treatment (ie, fed condition) relative to the reference treatment (ie, fasted condition) are estimated with the 90% CIs calculated for Cmax and AUC0-inf. […]
as §2, with “Participants” for “Up to 16 participants”, “Up to 3 additional days of washout may be added between fasted and fed dosing based on the observed half-life in Part A.” left out

- time to maximal concentrations ([2]; healthy volunteers, oral capsules, fasted, preliminary data): 2 to 3 h
- exposure versus dose level ([2]; healthy volunteers, preliminary data): increase proportionate to dose level
- half-life ([2]; human, plasma, oral, average across groups, healthy volunteers, preliminary data, read-out: Terminal elimination half-life (converted)): 114 h
- time to 90% of steady-state ([2]; once daily dosing): approximately 2 weeks
SMILES: CCOC(F)(F)c1nnc2cnc(-c3cnc(OCC(F)(F)F)c(F)c3)cn12 [Compound 1, 3-(ethoxydifluoromethyl)-6-(5-fluoro-6-(2,2,2-trifluoroethoxy)pyridin-3-yl)-[1,2,4]triazolo[4,3-a]pyrazine]
- tolerability ([1]; Part A single ascending doses, first four of six planned cohorts, preliminary analysis): well tolerated
- Serious Adverse Events, severe Adverse Events, or Adverse Events leading to study withdrawal or discontinuation ([1]; Part A, first three cohorts tested): no reported
